According to ChEMBL document CHEMBL1212786 (Antimicrob Agents Chemother, 2010):

Tests used:
[1] = Cmax in Sprague-Dawley rat at 5 mg/kg, iv after 24 hrs by LC/MS/MS analysis; type: ADME, organism-based; set-up: dose 5 mg/kg, route intravenous; conditions: in vivo
[2] = Oral bioavailability in monkey at 15 mg/kg after 24 hrs by LC/MS/MS analysis; type: ADME, organism-based, Macaca mulatta; conditions: rhesus monkey, in vivo
Hepatitis C virus = test: microbe, parasite or virus in culture; conditions: Huh-7, 24 h
Description: Antiviral activity against Hepatitis C virus infected in human Huh7ET cells assessed as inhibition of viral replication after 24 hrs by luciferase reporter gene assay

[3] = Cmax in monkey at 1.4 mg/kg, iv after 24 hrs by LC/MS/MS analysis; type: ADME, organism-based, Macaca mulatta; set-up: dose 1.4 mg/kg, route intravenous; conditions: rhesus monkey, in vivo
[4] = Cmax in monkey at 15 mg/kg, po after 24 hrs by LC/MS/MS analysis; type: ADME, organism-based, Macaca mulatta; set-up: dose 15 mg/kg, route oral; conditions: rhesus monkey, in vivo
[5] = Oral bioavailability in Sprague-Dawley rat at 20 mg/kg after 24 hrs by LC/MS/MS analysis; type: ADME, organism-based; conditions: in vivo
[6] = Apparent volume of distribution in Sprague-Dawley rat at 2 mg/kg, iv after 24 hrs by LC/MS/MS analysis; type: ADME, organism-based; set-up: dose 2 mg/kg, route intravenous; conditions: in vivo, read-out: Vz

Compound: C/C=C/C[C@@H](C)[C@@H](O)[C@H]1C(=O)N[C@@H](CC)C(=O)N(C)C(SCCN(C)C)C(=O)N(C)[C@@H](CC(C)(C)O)C(=O)N[C@@H](C(C)C)C(=O)N(C)[C@@H](CC(C)C)C(=O)N[C@@H](C)C(=O)N[C@H](C)C(=O)N(C)[C@@H](CC(C)C)C(=O)N(C)[C@@H](CC(C)C)C(=O)N(C)[C@@H](C(C)C)C(=O)N1C (single isomer, unassigned) [SCY 635]
- Cmax [1]: 2.99 µg/mL
- bioavailability [2]: 11.1%
- EC50 (Hepatitis C virus): 0.2 µM
- Cmax [3]: 2.31 µg/mL
- Cmax [4]: 2.43 µg/mL
- bioavailability [5]: 18.9%
- Vd [6]: 3.37 L/kg
